Some test systems named below: UO-31 renal; ACHN renal; KM12 colon; HL-60(TB) leukemia; SN12C renal; SF-268 CNS; OVCAR-8 ovarian; NCI-H460 lung; RXF 393 renal; MALME-3M melanoma.
Assay in all cases: growth of human tumour cells (NCI), 48 h

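Cultured in 96-well plates, cells were exposed to test compound for 48 hours across five concentrations. Here, GI50 denotes the concentration required for 50% inhibition of growth. TGI marks complete inhibition of growth.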 Bounds are passed on as bounds.

Take `O=C1CCCCC2N(C(c3ccccc3)c3ccccc3)CC[C@@]12c1ccccc1` (mixture of isomers): the TGI was over 10 µM in the experiment on UO-31 renal; over 10 µM in the experiment on ACHN renal; over 10 µM in the experiment on KM12 colon; 9.4 µM with HL-60(TB) leukemia; over 10 µM with SN12C renal; over 10 µM in the experiment with SF-268 CNS. The TGI in the experiment with OVCAR-8 ovarian, in the experiment with NCI-H460 lung and in the experiment with RXF 393 renal was over 10 µM throughout.
For `C=C(C)C(=O)OC1CCC2(C)C(CCC3C2CCC2(C)C(c4ccc(=O)oc4)CC4OC432)C1` (stereo not drawn), the TGI in the experiment on UO-31 renal stood at 35.8 µM; with KM12 colon, 24.3 µM; with MALME-3M melanoma, 26.4 µM; in the experiment on HL-60(TB) leukemia, 9.64 µM; in the experiment on SN12C renal, 24.1 µM; in the experiment with SF-268 CNS it was 31.9 µM. Also, the TGI is 24 µM in the experiment with OVCAR-8 ovarian, 7.99 µM in the experiment on NCI-H460 lung and 9.95 µM in the experiment with RXF 393 renal.
`Cc1cc(O)c(C(C)(C)C)cc1Sc1cc(C(C)(C)C)c(O)cc1C`: the GI50 in the experiment with UO-31 renal is 2.07 µM; in the experiment on ACHN renal, 2.89 µM; with KM12 colon, 2.24 µM; with MALME-3M melanoma, 2.32 µM; in the experiment with HL-60(TB) leukemia, 2.6 µM; with SN12C renal, 2.91 µM. The GI50 was 3.3 µM with SF-268 CNS, 3.82 µM with OVCAR-8 ovarian, 2.89 µM in the experiment on NCI-H460 lung and 1.82 µM with RXF 393 renal. Moreover, the TGI in the experiment with UO-31 renal is 8.25 µM; with ACHN renal it was 10 µM; in the experiment with KM12 colon, 5.01 µM; in the experiment on MALME-3M melanoma, 5.71 µM; in the experiment with HL-60(TB) leukemia, 6.35 µM; in the experiment on SN12C renal, over 100 µM. Also, the TGI stood at 12.9 µM with SF-268 CNS, 15.4 µM in the experiment with OVCAR-8 ovarian, 7.33 µM in the experiment with NCI-H460 lung and 3.39 µM in the experiment with RXF 393 renal.
Turning to `N#Cc1c(Cl)c2cc([N+](=O)[O-])ccc2n2c1nc1ccccc12`, the TGI in the experiment with UO-31 renal is 6.82 µM; with ACHN renal, 13.6 µM; with KM12 colon, 42.8 µM; in the experiment on MALME-3M melanoma, 24.1 µM; in the experiment on HL-60(TB) leukemia, 0.58 µM; with SN12C renal, over 100 µM. The TGI was found to be 13.6 µM with SF-268 CNS, 10.6 µM in the experiment with OVCAR-8 ovarian, 38.5 µM in the experiment with NCI-H460 lung and 5.39 µM with RXF 393 renal.
For the molecule `CCOC(=O)CN=C1NNS(=O)(=O)c2ccccc21`, the TGI in the experiment on UO-31 renal, in the experiment with ACHN renal, in the experiment with KM12 colon, with MALME-3M melanoma, in the experiment on HL-60(TB) leukemia and with SN12C renal was over 100 µM throughout. The TGI in the experiment on SF-268 CNS, with OVCAR-8 ovarian, with NCI-H460 lung and in the experiment with RXF 393 renal was over 100 µM each time.
Consider `Clc1ccccc1/C=C/c1cscn1`, for which the TGI in the experiment on UO-31 renal, in the experiment with ACHN renal, in the experiment on KM12 colon, in the experiment with MALME-3M melanoma, in the experiment with HL-60(TB) leukemia and in the experiment with SN12C renal was over 100 µM each time. Also, the TGI in the experiment with SF-268 CNS, in the experiment on NCI-H460 lung and in the experiment with RXF 393 renal was over 100 µM each time.
For `NCCCCC(N)C(=O)NCCNc1ccc(NCCNC(=O)C(N)CCCCN)c2c1C(=O)c1ccccc1C2=O` (stereo not drawn), the TGI with UO-31 renal is over 100 µM; in the experiment on ACHN renal, over 100 µM; in the experiment on KM12 colon, over 100 µM; with MALME-3M melanoma, over 100 µM; in the experiment on HL-60(TB) leukemia it was over 100 µM; with SN12C renal, 99.1 µM. The TGI in the experiment with SF-268 CNS was over 100 µM; in the experiment with OVCAR-8 ovarian, over 69 µM; in the experiment on NCI-H460 lung it was over 100 µM; with RXF 393 renal, 21.6 µM.
As to `O=C(O)Cc1cc(O)c(CC(=O)O)cc1O`, the TGI in the experiment with UO-31 renal, in the experiment with ACHN renal, with KM12 colon, with MALME-3M melanoma, in the experiment with HL-60(TB) leukemia and in the experiment with SN12C renal was over 100 µM throughout. The TGI with SF-268 CNS, in the experiment with OVCAR-8 ovarian, with NCI-H460 lung and with RXF 393 renal was over 100 µM in each case.
Consider `CCOC(=O)C(O)(NC(=O)c1ccc(F)cc1)C(F)(F)F` (stereo not drawn), for which the TGI in the experiment with UO-31 renal, in the experiment on ACHN renal, with KM12 colon, with MALME-3M melanoma, in the experiment on HL-60(TB) leukemia and with SN12C renal was over 100 µM throughout. Also, the TGI in the experiment on SF-268 CNS, in the experiment with OVCAR-8 ovarian and in the experiment on RXF 393 renal was over 100 µM each time.
As for `O=C1NN(C2=NNC3(C(=O)N2)c2ccccc2-c2ccccc23)C(c2ccccc2)=N/C1=C/c1ccc(O)cc1`, the GI50 is 48.9 µg/mL with UO-31 renal; 41.7 µg/mL in the experiment with ACHN renal; 28.6 µg/mL in the experiment with KM12 colon; 15 µg/mL in the experiment on MALME-3M melanoma; 51.7 µg/mL in the experiment with HL-60(TB) leukemia; 74.2 µg/mL in the experiment with SN12C renal. Moreover, the GI50 with SF-268 CNS was 49.9 µg/mL; in the experiment on OVCAR-8 ovarian, 65.9 µg/mL; in the experiment with NCI-H460 lung, 57.6 µg/mL; in the experiment with RXF 393 renal it was 97 µg/mL. The TGI with UO-31 renal is over 150 µg/mL; in the experiment on ACHN renal, over 150 µg/mL; with KM12 colon it was 57.6 µg/mL; in the experiment on MALME-3M melanoma, 15 µg/mL; with HL-60(TB) leukemia, over 150 µg/mL; with SN12C renal it was over 150 µg/mL. The TGI in the experiment on SF-268 CNS, in the experiment with OVCAR-8 ovarian, in the experiment with NCI-H460 lung and in the experiment on RXF 393 renal was over 150 µg/mL each time.
As to `C=CC1(C)CCC2=C(CCC3C(C)(C(=O)OC)CCCC23C)C1=O` (stereo not drawn), the TGI with UO-31 renal is 42.8 µM; in the experiment with ACHN renal it was 31.9 µM; in the experiment on KM12 colon it was 31.5 µM; in the experiment on MALME-3M melanoma, 32.8 µM; in the experiment on HL-60(TB) leukemia, 55.2 µM; in the experiment with SN12C renal, 33 µM. In addition, the results for the TGI in the experiment on SF-268 CNS, in the experiment with OVCAR-8 ovarian and in the experiment on NCI-H460 lung were 34.9 µM, over 100 µM and 36.5 µM, respectively.
In the case of `Cn1c(=O)c2[nH]c(CCCCC(=O)O)nc2n(C)c1=O`, the TGI in the experiment on UO-31 renal, with ACHN renal, in the experiment on KM12 colon, in the experiment with MALME-3M melanoma, in the experiment on SN12C renal and in the experiment with SF-268 CNS was over 100 µM in each case. The TGI in the experiment on OVCAR-8 ovarian, in the experiment with NCI-H460 lung and in the experiment with RXF 393 renal was over 100 µM each time.
For `O=C(N/N=C\c1cccc(O)c1)c1ccncc1`, the TGI in the experiment with UO-31 renal, with ACHN renal, with KM12 colon, in the experiment on MALME-3M melanoma, in the experiment with SN12C renal and in the experiment with SF-268 CNS was over 100 µM each time. For the same molecule, the TGI with OVCAR-8 ovarian, with NCI-H460 lung and with RXF 393 renal was over 100 µM in each case.
As for `Cc1nc2ccccc2n1C(=O)c1c(F)c(F)c(F)c(F)c1F`, the TGI is 33.9 µM in the experiment on UO-31 renal; 60.7 µM with ACHN renal; 14.7 µM in the experiment with KM12 colon; 57.5 µM in the experiment with MALME-3M melanoma; over 100 µM with HL-60(TB) leukemia; 30.6 µM in the experiment on SN12C renal. The TGI with SF-268 CNS was over 100 µM; with OVCAR-8 ovarian, 40.6 µM; in the experiment with NCI-H460 lung it was 52 µM; in the experiment with RXF 393 renal it was 33.5 µM.
